# Tested on: C. elegans wild-type, dpy-18(ok162) or phy-2(ok177)
# Test: Exposure of adult hermaphrodites to inhibitors, lethality of progeny
# Assay type: in vivo, Caenorhabditis elegans
# Settings: regardless of genotype (wild-type
# Experimental: All wild-type C. elegans were from an N2 Bristol strain. Worms were cultured at 20° C. under standard conditions unless otherwise noted (J. E. Sulston and J. Hodgkin, Methods. In The Nematode Caenorhabditis elegans, pp. 587-606, 1988). LG II:unc-4(e120) was used as a marker for transgenic assays. LG III:dpy-18(ok162) is a deletion mutation isolated specifically as a knock-out of the prolyl 4-hydroxylase on chromosome III. […] 11 alleles (mutations in the dpy-18 gene) are known—dpy-18: e346, e364, e499, e1096, e1270, e1862, h662, s361, s1304, s1305, s1306. LG IV:unc-22(e66) is a mutation that can be used to recognize chromosome IV, and poh-1(ok-177) is a deletion mutation isolated specifically as a knock-out of the prolyl 4-hydroxylase gene on chromosome IV.
# Small molecules that inhibit protein function can be used to confirm and extend results from genetic experiments. We tested two known prolyl 4-hydroxylase inhibitors for their effects on C. elegans. […] Both inhibitors limit prolyl 4-hydroxylase activity in cells, where their esters are hydrolyzed to form competitors of α-ketoglutarate. We also tested Inhibitor III (which is similar in structure to Inhibitor II) and Inhibitor IV (which is similar in structure to Inhibitor I). Neither Inhibitor III nor […] is known to limit prolyl 4-hydroxylase activity in cells. […]
Structure (SMILES),"lethality of progeny (high level 1.3 μM, FIG. 2B)","lethality of progeny (high level 2.7 μM, FIG. 2A)"
"COC(=O)CNC(=O)C(=O)OC [Inhibitor II, dimethyloxalylglycine]",all progeny died,–
"CCOC(=O)c1ccnc(C(=O)OCC)c1 [Inhibitor I, 2,4-diethylpyridine dicarboxylate]",–,all progeny died
